The text below walks through data of patent publication US7863465B2, “Antifungal agents” (Merck Sharp & Dohme Corp., priority 2006, dated 2011).

The target of the assay is T1, glucan synthase (GS) prepared from Candida albicans MY1055 (Candida albicans, UniProt O13428).
T1 construct: Extraction of GS activity from membranes was performed at a protein concentration of 5 mg/mL in extraction buffer; endogenous in cells; host or cells: Candida albicans MY1055 (membranes, detergent extract, product entrapment)
The experiment in a line: Glucan synthase inhibition (polymerization assay, 96-well, 3H-UDPG incorporation). In kind it is biochemical. The settings on record: glucan synthase from C. albicans MY1055. How it is done: The in vitro evaluation of glucan synthase inhibitory activity of compounds was measured in a polymerization assay in 96-well format. Each well contained 100 μL of ^3H-UDPG at 0.5 mM (6000 to 8000 dpm/nmol), 50 mM HEPES pH 7.5 (Sigma), 10% w/v glycerol (Sigma), 1.5 mg/mL bovine serum albumin (Sigma A 9647. Lot 44H0190), 25 mM KF (Fisher), 1 mM EDTA (Gibco Ultrapure), 25 μM GTP-γ-S, enzyme sufficient to give 3 to 6 nmoles incorporation during the 60 min incubation at 22° C., and test compound added from wells in 3-fold serial dilutions in 100% DMSO (1 μL/well). The reaction was stopped by the addition of 100 μL of 20% trichloroacetic acid. Plates were chilled for a minimum of 10 min, and precipitated glucan collected by filtration on GF/C plates (Packard Unifilter®-96), washed with 5 cycles of water (about 1 mL/well each cycle) using a Packard Filtermate Harvester. 40 μL/well scintillation fluid (Packard Ultima Gold TM-XR) was added and the sealed plates counted in a Wallac Beta counter in top-counting mode at an efficiency of approximately 40%.
Stock solutions were stored at 10 mg/mL in DMSO at −20° C. For each new enzyme preparation, the initial titration performed started at 1 mg/mL, which was prepared by making a 10-fold dilution in DMSO (5 μL to 50 μL). 40 μL of this stock was placed in column 12 of a round-bottomed 96-well microtiter plate. 40 μL DMSO was added to columns 1 to 11 in the same row and ten 3-fold serial dilutions performed, by transferring 20 μL from column 12 to column 11 etc., with 4 mixings before each transfer. No test compound was transferred to from column 2 to column 1. Duplicate aliquots of 1 μL of all 12 dilutions were then transferred to the side walls of a 96-well Bioblock 1.1 mL plate (Fisherbrand) to create two rows.
The results were tabulated and a standard plate background was subtracted and the net count transpose-pasted into a Prism file, with final compound concentrations used in ng/mL. Graphs were created in Prism software, using the average of two determinations, and using Prism's curve fitting program (sigmoidal dose response non-linear regression).
Routine analysis was performed with glucan synthase (GS) prepared from Candida albicans MY1055 by the following procedure: MY1055 was grown in 10 liters YPD medium (10 g yeast extract, 20 g tryptone, 20 g glucose per liter) with vigorous shaking at 30° C., to early stationary phase. Cells were harvested by centrifugation, the pellet was washed and frozen at −70° C. until breakage. Thawed pellets were shaken with an equal volume of breakage buffer (50 mM HEPES pH 7.4, 10% glycerol, 1 mM EDTA, 1 mM PMSF, 1 mM DTT) and 4 times their weight of 0.5 mm acid washed glass beads for 2 hours at 4° C. Extent of breakage was assessed visually at 40× magnification. For C. parapsilosis strains, shaking was extended to 3 hours to maximize breakage. After low speed centrifugation to remove cell debris, the supernatant was centrifuged at 100,000×g for 60 min. to separate membranes plus ribosomes from cytoplasmic components. Membranes were further washed two additional times with breakage buffer using the same centrifugation conditions and finally suspended in breakage buffer at 25 to 30 mg/mL protein (Biorad) for storage at −70° C. Extraction of GS activity from membranes was performed at a protein concentration of 5 mg/mL in extraction buffer (50 mM NaPO4 pH 7.5, 0.1 M KCl, 0.1M Na citrate, 20% glycerol, 5 μM GTP-γ-S, 1 mM DTT, 1 mM PMSF, 3 μg/mL pepstatin) plus 0.25% W1 by gentle mixing at 4° C. for 60 min, followed by centrifugation at 100,000×g for 60 min. After centrifugation, clear supernatant was removed from a pellet consisting of a hard layer usually with small amounts of gelatinous unextracted membranes above it. […]

T1 sequence (O13428 1-1897): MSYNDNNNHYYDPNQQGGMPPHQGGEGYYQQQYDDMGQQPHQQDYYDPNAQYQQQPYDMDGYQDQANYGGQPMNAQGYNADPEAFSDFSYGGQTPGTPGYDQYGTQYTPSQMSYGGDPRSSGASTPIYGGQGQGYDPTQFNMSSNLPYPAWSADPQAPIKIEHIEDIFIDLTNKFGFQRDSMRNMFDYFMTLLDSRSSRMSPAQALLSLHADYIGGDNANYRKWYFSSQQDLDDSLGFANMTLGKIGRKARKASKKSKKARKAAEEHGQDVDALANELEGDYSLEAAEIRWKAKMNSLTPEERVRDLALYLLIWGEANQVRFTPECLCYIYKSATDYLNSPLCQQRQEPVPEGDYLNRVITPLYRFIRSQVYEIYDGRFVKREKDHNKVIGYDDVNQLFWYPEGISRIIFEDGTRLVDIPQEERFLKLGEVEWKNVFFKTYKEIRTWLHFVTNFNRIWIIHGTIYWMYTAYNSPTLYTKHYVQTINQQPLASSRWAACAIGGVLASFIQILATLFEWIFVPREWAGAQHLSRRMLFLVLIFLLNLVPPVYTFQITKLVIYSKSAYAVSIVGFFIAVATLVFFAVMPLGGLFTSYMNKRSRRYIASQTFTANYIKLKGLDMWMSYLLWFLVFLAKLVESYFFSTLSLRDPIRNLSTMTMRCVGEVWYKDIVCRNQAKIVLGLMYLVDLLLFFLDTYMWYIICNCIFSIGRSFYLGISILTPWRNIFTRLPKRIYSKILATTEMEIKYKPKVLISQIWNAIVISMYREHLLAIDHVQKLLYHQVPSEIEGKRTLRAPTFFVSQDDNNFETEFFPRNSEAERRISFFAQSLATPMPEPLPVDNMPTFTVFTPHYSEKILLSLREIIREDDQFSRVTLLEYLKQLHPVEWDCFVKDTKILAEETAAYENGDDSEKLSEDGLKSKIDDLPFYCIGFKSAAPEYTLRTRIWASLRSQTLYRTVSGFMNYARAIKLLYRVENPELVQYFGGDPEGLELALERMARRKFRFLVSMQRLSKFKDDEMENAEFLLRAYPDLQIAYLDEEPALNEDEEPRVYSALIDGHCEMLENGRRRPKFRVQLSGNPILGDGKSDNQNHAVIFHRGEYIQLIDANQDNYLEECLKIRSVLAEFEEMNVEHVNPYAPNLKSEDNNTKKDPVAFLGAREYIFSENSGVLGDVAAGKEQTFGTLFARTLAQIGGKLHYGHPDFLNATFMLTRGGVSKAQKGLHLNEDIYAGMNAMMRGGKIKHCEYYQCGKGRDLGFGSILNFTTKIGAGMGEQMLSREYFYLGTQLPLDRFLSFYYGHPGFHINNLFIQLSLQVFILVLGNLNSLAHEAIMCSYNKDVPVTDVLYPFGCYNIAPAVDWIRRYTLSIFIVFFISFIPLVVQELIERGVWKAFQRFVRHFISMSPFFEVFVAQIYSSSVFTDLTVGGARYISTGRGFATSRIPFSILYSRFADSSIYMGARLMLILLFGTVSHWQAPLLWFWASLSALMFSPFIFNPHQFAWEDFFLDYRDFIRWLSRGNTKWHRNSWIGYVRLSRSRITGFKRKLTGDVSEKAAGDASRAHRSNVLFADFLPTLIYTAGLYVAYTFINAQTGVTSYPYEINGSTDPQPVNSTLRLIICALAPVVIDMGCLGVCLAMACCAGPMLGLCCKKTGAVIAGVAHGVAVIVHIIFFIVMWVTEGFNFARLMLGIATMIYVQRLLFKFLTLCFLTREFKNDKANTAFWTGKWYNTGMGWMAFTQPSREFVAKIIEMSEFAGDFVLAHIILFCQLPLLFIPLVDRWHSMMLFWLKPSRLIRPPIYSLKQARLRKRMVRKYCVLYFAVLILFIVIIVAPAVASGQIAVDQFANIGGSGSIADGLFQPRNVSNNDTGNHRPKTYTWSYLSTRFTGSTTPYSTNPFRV
T1 sequence (O42825 whole entry partner): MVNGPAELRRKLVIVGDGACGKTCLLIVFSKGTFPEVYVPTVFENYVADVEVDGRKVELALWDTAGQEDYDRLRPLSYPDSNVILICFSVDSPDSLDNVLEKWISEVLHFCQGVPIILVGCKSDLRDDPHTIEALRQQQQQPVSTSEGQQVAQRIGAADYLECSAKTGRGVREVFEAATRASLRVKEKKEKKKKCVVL

On to `CC(=O)O[C@@H]1C[C@@]23COC[C@](C)([C@@H]2CC[C@H]2C3=CC[C@@]3(C)[C@H](C(=O)O)[C@@](C)([C@H](C)C(C)C)CC[C@]23C)[C@H]1OCCN` [Example 1, (1S,2R,3R,4aR,6aS,7R,8R,10aR,10bR,12aR)-3-(acetyloxy)-2-(2-aminoethoxy)-8-[(1R)-1,2-dimethylpropyl]-1,6a,8,10a-tetramethyl-1,3,4,6,6a,7,8,9,10,10a,10b,11,12,12a-tetradecahydro-2H-1,4a-(methanooxymethano)chrysene-7-carboxylic acid], for which the IC50 is 81.9 nM.

`CC(=O)O[C@@H]1C[C@@]23COC[C@](C)(C2CC[C@H]2C3=CC[C@@]3(C)[C@H](C(=O)O)[C@@](C)([C@H](C)C(C)C)CC[C@]23C)[C@H]1OCC(C)N` (stereo partly drawn) [Example 2, (1S,2R,3R,4aR,6aS,7R,8R,10aR,10bR,12aR)-3-(Acetyloxy)-2-(2-aminopropoxy)-8-[(1R)-1,2-dimethylpropyl]-1,6a,8,10a-tetramethyl-1,3,4,6,6a,7,8,9,10,10a,10b,11,12,12a-tetradecahydro-2H-1,4a-(methanooxymethano)chrysene-7-carboxylic acid]: the midpoint of inhibition, the IC50, lay at 39.1 nM.

In turn, `CC(=O)O[C@@H]1C[C@@]23COC[C@](C)([C@@H]2CC[C@H]2C3=CC[C@@]3(C)[C@H](C(=O)O)[C@@](C)([C@H](C)C(C)C)CC[C@]23C)[C@H]1OCCNC(=O)C(N)CN` (stereo partly drawn) [Example 5, (1S,2R,3R,4aR,6aS,7R,8R,10aR,10bR,12aR)-3-(acetyloxy)-2-[2-(2,3-diaminopropionylamino)-ethoxy]-8-[(1R)-1,2-dimethylpropyl]-1,6a,8,10a-tetramethyl-1,3,4,6,6a,7,8,9,10,10a,10b,11,12,12a-tetradecahydro-2H-1,4a-(methanooxymethano)chrysene-7-carboxylic acid] showed an IC50 of 126 nM.

In the case of `CC(=O)O[C@@H]1C[C@@]23COC[C@](C)([C@@H]2CC[C@H]2C3=CC[C@@]3(C)[C@H](C(=O)O)[C@@](C)([C@H](C)C(C)C)CC[C@]23C)[C@H]1OCCNC(=N)N` [Example 6, (1S,2R,3R,4aR,6aS,7R,8R,10aR,10bR,12aR)-3-(acetyloxy)-2-(2-guanidino-ethoxy)-8-[(1R)-1,2-dimethylpropyl]-1,6a,8,10a-tetramethyl-1,3,4,6,6a,7,8,9,10,10a,10b, 11,12,12a-tetradecahydro-2H-1,4a-(methanooxymethano)chrysene-7-carboxylic acid], half-maximal inhibition (IC50) required 19.5 nM.

`CC(=O)O[C@@H]1C[C@@]23COC[C@](C)([C@@H]2CC[C@H]2C3=CC[C@@]3(C)[C@H](C(=O)O)[C@@](C)([C@H](C)C(C)C)CC[C@]23C)[C@H]1OCCNCCCN` [Example 8, (1S,2R,3R,4aR,6aS,7R,8R,10aR,10bR,12aR)-3-(acetyloxy)-2-[2-(3-aminopropylamino)-ethoxy]-8-[(1R)-1,2-dimethylpropyl]-1,6a,8,10a-tetramethyl-1,3,4,6,6a,7,8,9,10,10a,10b,11,12,12a-tetradecahydro-2H-1,4a-(methanooxymethano)chrysene-7-carboxylic acid] gave an IC50 of 25.4 nM.

On to `CC(=O)O[C@@H]1C[C@@]23COC[C@](C)(C2CC[C@H]2C3=CC[C@@]3(C)[C@H](C(=O)O)[C@@](C)([C@H](C)C(C)C)CC[C@]23C)[C@H]1OCCNC[C@@H](N)CCCCN` (stereo partly drawn) [Example 21, (1S,2R,3R,4aR,6aS,7R,8R,10aR,10bR,12aR)-3-(acetyloxy)-2-[2-((S)-2,6-diaminohexylamino)-ethoxy]-8-[(1R)-1,2-dimethylpropyl]-1,6a,8,10a-tetramethyl-1,3,4,6,6a,7,8,9,10,10a,10b,11,12,12a-tetradecahydro-2H-1,4a-(methanooxymethano)chrysene-7-carboxylic acid], for which the IC50 is 59.6 nM.

In the case of `CC(=O)O[C@@H]1C[C@@]23COC[C@](C)(C2CC[C@H]2C3=CC[C@@]3(C)[C@H](C(=O)O)[C@@](C)([C@H](C)C(C)C)CC[C@]23C)[C@H]1OCCNC(=N)NC(C)(C)C` (stereo partly drawn) [Example 24, (1S,2R,3R,4aR,6aS,7R,8R,10aR,10bR,12aR)-3-(acetyloxy)-2-[2-(N′-tert-butylguanidino)-ethoxy]-8-[(1R)-1,2-dimethylpropyl]-1,6a,8,10a-tetramethyl-1,3,4,6,6a,7,8,9,10,10a,10b,11,12,12a-tetradecahydro-2H-1,4a-(methanooxymethano)chrysene-7-carboxylic acid], the IC50 is 32.7 nM.

The molecule `CC(=O)O[C@@H]1C[C@@]23COC[C@@](C)([C@@H]2CC[C@H]2C3=CC[C@@]3(C)[C@H](C(=O)O)[C@@](C)([C@H](C)C(C)C)CC[C@]23C)[C@H]1OCCCN` [Example 35, (1S,2R,3R,4aR,6aS,7R,8R,10aR,10bR,12aR)-3-(acetyloxy)-2-(3-aminopropoxy)-8-[(1R)-1,2-dimethylpropyl]-1,6a,8,10a-tetramethyl-1,3,4,6,6a,7,8,9,10,10a,10b,11,12,12a-tetradecahydro-2H-1,4a-(methanooxymethano)chrysene-7-carboxylic acid] showed an IC50 of 47.6 nM.

`CC(=O)O[C@@H]1C[C@@]23COC[C@](C)(C2CC[C@H]2C3=CC[C@@]3(C)[C@H](C(=O)O)[C@@](C)([C@H](C)C(C)C)CC[C@]23C)[C@H]1OCCCCN` (stereo partly drawn) [Example 40, (1S,2R,3R,4aR,6aS,7R,8R,10aR,10bR,12aR)-3-(acetyloxy)-2-(4-aminobutoxy)-8-[(1R)-1,2-dimethylpropyl]-1,6a,8,10a-tetramethyl-1,3,4,6,6a,7,8,9,10,10a,10b,11,12,12a-tetradecahydro-2H-1,4a-(methanooxymethano)chrysene-7-carboxylic acid] gave a half-maximal inhibitory concentration (IC50) of 51.5 nM.

As for `CC(=O)O[C@@H]1C[C@@]23COC[C@](C)([C@@H]2CC[C@H]2C3=CC[C@@]3(C)[C@H](C(=O)O)[C@@](C)([C@H](C)C(C)C)CC[C@]23C)[C@H]1OCC(O)(CO)CO` [Example 44, (1S,2R,3R,4aR,6aS,7R,8R,10aR,10bR,12aR)-3-(acetyloxy)-2-(2,3-dihydroxy-2-hydroxymethylpropoxy)-8-[(1R)-1,2-dimethylpropyl]-1,6a,8,10a-tetramethyl-1,3,4,6,6a,7,8,9,10,10a,10b,11,12,12a-tetradecahydro-2H-1,4a-(methanooxymethano)chrysene-7-carboxylic acid], 616 nM corresponded to half-maximal inhibition (IC50).

With `CC(=O)O[C@@H]1C[C@@]23COC[C@](C)([C@@H]2CC[C@H]2C3=CC(=O)[C@@]3(C)[C@H](C(=O)O)[C@@](C)([C@H](C)C(C)C)CC[C@]23C)[C@H]1OCCN` [Example 47, (1S,2R,3R,4aR,6aS,7R,8R,10aR,10bR,12aR)-3-(acetyloxy)-2-(2-aminoethoxy)-8-[(1R)-1,2-dimethylpropyl]-1,6a,8,10a-tetramethyl-6-oxo-1,3,4,6,6a,7,8,9,10,10a,10b,11,12,12a-tetradecahydro-2H-1,4a-(methanooxymethano)chrysene-7-carboxylic acid], it took 78.3 nM to reach half-maximal inhibition (IC50).

As for `CC(=O)O[C@@H]1C[C@@]23COC[C@](C)([C@@H]2CC[C@H]2C3=CC(=O)[C@@]3(C)[C@H](C(=O)O)[C@@](C)([C@H](C)C(C)C)CC[C@]23C)[C@H]1OCCNC(=N)N` [Example 48, (1S,2R,3R,4aR,6aS,7R,8R,10aR,10bR,12aR)-3-(acetyloxy)-2-(2-guanidinoethoxy)-8-[(1R)-1,2-dimethylpropyl]-1,6a,8,10a-tetramethyl-6-oxo-1,3,4,6,6a,7,8,9,10,10a,10b,11,12,12a-tetradecahydro-2H-1,4a-(methanooxymethano)chrysene-7-carboxylic acid], it took 28.6 nM to reach half-maximal inhibition (IC50).

The term IC50 denotes the concentration needed to halve the response being measured. Low readings indicate inhibition by little substance, high ones a need for much substance.
